Reference: ChEMBL document CHEMBL3046612, “Design, multicomponent synthesis, and bioactivities of novel neonicotinoid analogues with 1,4-dihydropyridine scaffold” (2010)

How the values were obtained:
[1] = system: Aphis craccivora; assay: Insecticidal activity against Aphis craccivora (cowpea aphid) in tender shoots of soybean assessed as mortality at 500 mg/L measured after 1 days (reference value: 4.3%); format: functional; conditions: 24 h
[2] = system: Aphis craccivora; assay: Insecticidal activity against Aphis craccivora (cowpea aphid) in tender shoots of soybean assessed as mortality measured after 1 days; format: functional; conditions: 24 h

Row | Compound | mortality at 500 µg/mL [1] [%] | LC50 [2] [µM]
1 | N#CC1=C(N)N2CCN(Cc3ccc(Cl)nc3)C2=C([N+](=O)[O-])C1c1ccccc1 (stereo unspecified) | 83.1 | 
2 | Cc1c(F)cccc1C1C(C#N)=C(N)N2CCN(Cc3ccc(Cl)nc3)C2=C1[N+](=O)[O-] (stereo unspecified) | 100 | 3.45
3 | COc1ccc(C2C(C#N)=C(N)N3CCN(Cc4ccc(Cl)nc4)C3=C2[N+](=O)[O-])cc1 (stereo unspecified) | 100 | 9.75
4 | N#CC1=C(N)N2CCN(Cc3ccc(Cl)nc3)C2=C([N+](=O)[O-])C1c1ccc(Cl)cc1C(F)(F)F (stereo unspecified) | 100 | 61.6
5 | Cc1ccc(F)cc1C1C(C#N)=C(N)N2CCN(Cc3ccc(Cl)nc3)C2=C1[N+](=O)[O-] (stereo unspecified) | 100 | 96.1
6 | Cc1cc(C2C(C#N)=C(N)N3CCN(Cc4ccc(Cl)nc4)C3=C2[N+](=O)[O-])c(Br)cc1F (stereo unspecified) | 75.9 | 
7 | Cc1ccc(C2C(C#N)=C(N)N3CCN(Cc4ccc(Cl)nc4)C3=C2[N+](=O)[O-])c(F)c1 (stereo unspecified) | 72.9 | 
8 | N#CC1=C(N)N2CCN(Cc3ccc(Cl)nc3)C2=C([N+](=O)[O-])C1c1ccc(Br)cc1Cl (stereo unspecified) | 85 | 
9 | N#CC1=C(N)N2CCN(Cc3ccc(Cl)nc3)C2=C([N+](=O)[O-])C1c1ccc(Cl)cc1F (stereo unspecified) | 88 | 
10 | N#CC1=C(N)N2CCN(Cc3ccc(Cl)nc3)C2=C([N+](=O)[O-])C1c1ccc(Cl)cc1Cl (stereo unspecified) | 93.4 | 133
11 | N#CC1=C(N)N2CCN(Cc3ccc(Cl)nc3)C2=C([N+](=O)[O-])C1c1cccc(Br)c1 (stereo unspecified) | 91.8 | 197
12 | N#CC1=C(N)N2CCN(Cc3ccc(Cl)nc3)C2=C([N+](=O)[O-])C1c1ccc(OC(F)(F)F)cc1 (stereo unspecified) | 100 | 98
13 | N#CC1=C(N)N2CCN(Cc3ccc(Cl)nc3)C2=C([N+](=O)[O-])C1c1cccc(C#N)c1 (stereo unspecified) | 80 | 
14 | N#CC1=C(N)N2CCN(Cc3ccc(Cl)nc3)C2=C([N+](=O)[O-])C1c1ccc(C#N)cc1 (stereo unspecified) | 93.7 | 175
15 | N#CC1=C(N)N2CCN(Cc3ccc(Cl)nc3)C2=C([N+](=O)[O-])C1c1cccc([N+](=O)[O-])c1 (stereo unspecified) | 91.9 | 79
16 | N#CC1=C(N)N2CCN(Cc3ccc(Cl)nc3)C2=C([N+](=O)[O-])C1c1ccc([N+](=O)[O-])cc1 (stereo unspecified) | 77 | 
17 | O=[N+]([O-])/N=C1\NCCN1Cc1ccc(Cl)nc1 [IMIDACLOPRID] | 100 | 
